Measurements taken from US9388163B2, “Multifunctional radical quenchers for the treatment of mitochondrial dysfunction” (Arizona Board of Regents, a Body Corporate of the State of …, priority 2011, dated 2016).

Assays:
FRDA lymphocyte = assay: Mitochondrial bioenergetics assessment: total cellular ATP content; format: cell-based; conditions: for cellular ATP levels: after forty hours, at lower concentration (FIG. 3)
Protocol: XI. Mitochondrial Bioenergetics Assessment
The use of CoQ10 analogues and methylene blue analogues to normalize and restore the respiratory chain activities provides valuable therapeutic approach for mitochondrial diseases. The reductions of mitochondrial respiratory chain activity in Friedreich ataxia (FRDA) patients have been reported. The efficiency of oxidative phosphorylation was evaluated in FRDA lymphocyte (GM15850) in presence of tested CoQ10 analogues and methylene blue analogues by measuring total cellular ATP content using (ViaLight®-Plus ATP monitoring reagent kit, Lonza).
FRDA lymphocyte cell lines were obtained from Coriell Cell Repositories. FRDA lymphocytes were cultured under glucose-free media supplemented with galactose for two weeks to force energy production predominantly through oxidative phosphorylation rather than glycolysis. Lymphocytes were cultured in RPMI 1640 medium glucose-free supplemented with 25 mM galactose, 2 mM glutamine and 1% penicillin-streptomycin, and 10%, dialyzed fetal bovine serum FBS (<0.5 μg/mL). Briefly, lymphocytes (2×10^5 cell/mL), were plated (1 mL in 12-well plates) and treated with the test compounds at final concentrations of 50, 125. […] Cells were transferred (100 μL) to 96-well microtiter black-walled cell culture plates. The total intracellular ATP level was measured in a luminator (Clarity™ luminescence microplate reader) with the ATP Bioluminescence Assay Kit (ViaLight®-Plus ATP monitoring reagent kit, Lonza) following the manufacturer's instructions. Carbonyl cyanide-p-trifluormethoxy-phenylhydrazone (FCCP) and oligomycin were used as control for inhibition of ATP synthesis.

[1] = James et al. (2005); cited from earlier work
[2] = tested on: bovine heart mitochondrial complex (I, III, IV); assay: NADH oxidase inhibition assay (beef heart submitochondrial particles); format: biochemical
Protocol: X. NADH Oxidase Inhibition Assay
Beef heart mitochondria were obtained by a large-scale procedure. Inverted submitochondrial particles (SMP) were prepared by the method of Matsuno-Yagi and Hatefi (J. Biol. Chem. 260 (1985), p. 14424), and stored in a buffer containing 0.25 M sucrose and 10 mM Tris-HCl (pH 7.4) at −80° C. Inhibitory effects of compounds on bovine heart mitochondrial complex (I, III, IV) were evaluated. Maximal dimethyl sulfoxide concentration never exceeded 2% and had no influence on the control enzymatic activity. Beef heart SMP were diluted to 0.5 mg/mL. The enzymatic activities were assayed at 30° C. and monitored spectrophotometrically with a Beckman Coulter DU-530 (340 nm, ε=6.22 mM^−1 cm^−1). NADH oxidase activity was determined in a reaction medium (2.5 mL) containing 50 mM Hepes, pH 7.5, containing 5 mM MgCl2. The final mitochondrial protein concentration was 30 μg/mL. After the pre-equilibration of SMP with inhibitor for 5 min, the initial rates were calculated from the linear portion of the traces.

CEM leukemia cells = assay: Suppression of ROS production (DCFH-DA, flow cytometry) in DEM-treated cells; format: cell-based; conditions: CEM cells treated with DEM, untreated control 100, treated control 0
Protocol: (§1) Leukemic CEM cells (ATCC®, catalogue number CRL-2264) were cultured in RPMI (GIBCO, Grand island, NY, USA) with 10% FBS (Fisher Scientific, TX, USA), 2 mM glutamine (HyClone, South Logan, Utah, USA) and 1% penicillin-streptomycin mix antibiotics (Cellgro, Manassas, Va., USA) supplements. Cells were maintained in the log phase at a concentration of between 1×10^5 and 1×10^6 cells/mL.
Cellular ROS production can be monitored using 2′,7′-dichlorodihydrofluorescein diacetate (DCFH-DA) (LeBel et al. (1992) Chem. Res. Toxicol. 5, 227-231) (Molecular Probes, Eugene, Oreg., USA), a membrane permeable and oxidant-sensitive fluorescent dye. DCFH-DA is a non-fluorescent derivative of fluorescein that emits fluorescence after being oxidized by hydrogen peroxide and other ROS. The emitted fluorescence is directly proportional to the concentration of hydrogen peroxide. DCFH-DA is nonionic and nonpolar and is easily taken up by cells. Once inside the cell, DCFH-DA is hydrolyzed by cellular esterases to non-fluorescent DCFH which traps the dye in the cell. In the presence of ROS including hydrogen peroxide, DCFH is oxidized to the highly fluorescent compound dichlorofluorescein (DCF). The intracellular DCF fluorescence is used as an index of cellular ROS production.
Cellular oxidative stress was induced by pharmacological depletion of glutathione (GSH) using the chemical diethylmaleate (DEM). […] The compounds tested were prepared by first making stock solutions (1 mM) in dimethylsulfoxide (DMSO). Cells were treated with 5 mM DEM for 30 minutes and collected by centrifugation at 300×g for 3 min and then washed twice with Phosphate Buffer Saline (PBS) (Invitrogen, N.Y., USA). Cells were re-suspended in PBS buffer+10 mM glucose and incubated at 37° C. in the dark for 20 min with 10 μM DCFH-DA. Cells were collected by centrifugation at 300×g for 3 min and then washed twice with PBS buffer. The samples were analyzed immediately by flow cytometry (Becton-Dickinson FACS Caliber), (Cell Quest software, BD Biosciences) using 488 nm excitation laser and FL1-H channel 538 nm emission filter. In each analysis, 10,000 events were recorded after cell debris were electronically gated out. Results obtained were verified by running duplicates and repeating experiments N=3 independent experiments. Authentic hydrogen peroxide was used as a positive control.

FRDA cell line = assay: Trypan blue exclusion cell viability assay, DEM-stressed cells; format: cell-based; conditions: FRDA cells stressed with DEM
Protocol: as §1, with “Friedreich's Ataxia lymphocytes and control” for “Leukemic CEM”, “(Coriell,” for “(ATCC®,”, “[…], respectively)” for “CRL-2264)”, “15%” for “10%”
V. Trypan Blue Cell Viability Assay
Cell viability determined by trypan blue exclusion assay: This technique was used to assess the cytoprotective effects of the invention compounds in cultured cells pharmacologically treated to induce cell death by GSH depletion. DEM was used to deplete cellular GSH and induce oxidative stress. The viability of DEM-treated cells was determined by their ability to exclude the dye trypan blue. Viable cells exclude trypan blue; whereas, non-viable cells take up the dye and stain blue. Briefly, cells were seeded at a density of 1×10^6 cells/mL and treated with different concentrations of the invention compounds. Cells were incubated at 37° C. in a humidified atmosphere of 5% CO2 in air for three hours with 5 mM DEM. Cell viability was determined by staining cells with 0.4% trypan blue using a hemocytometer. At least 500 cells were counted for each experimental group. At the time of assay, >95% of DEM-treated cells were trypan blue positive; whereas, in non-DEM treated control cell cultures >95% cells were viable. Cell viability was expressed as the percentage of control. Data are expressed as means±S.E.M (n=3).

leukemia CEM lymphocytes = assay: Suppression of lipid peroxidation (C11-BODIPY 581/591, FACS) in DEM-treated cells; format: cell-based; conditions: CEM cells treated with DEM, untreated control 100, treated control 0
Protocol: as §1
Measurement of C11-BODIPY^581/591 Oxidation in Cell Culture
Lipid peroxidation in cells was detected by utilizing the oxidant-sensitive lipophilic probe C11 BODIPY^581/591. […] Cells were treated with 500 nM C11 BODIPY^581/591 in phenol red-free RPMI-1640 media and incubated at 37° C. in the dark for 30 minutes. The cells were washed twice with phosphate buffered saline and oxidative stress was induced with 5 mM DEM in phenol red-free RPMI-1640 media for 90 minutes. Treated cells were collected by centrifugation at 300×g for 3 minutes and then washed twice with phosphate buffered saline. Cells were re-suspended in 250 μL of phosphate buffered saline and were analyzed by FACS (FACS Calibur flow cytometer, Becton Dickinson) to monitor the change in intensity of the C11 BODIPY^581/591 green (oxidized) fluorescence signal.

## CN(C)c1ccc2nc3ccc(=O)cc-3sc2c1 [CPD-18, 7-(dimethylamino)-3H-phenothiazin-3-one]
FRDA lymphocyte
  cellular ATP levels: significantly increased cellular ATP levels
FRDA lymphocyte; at higher concentrations
  maintaining ATP levels, compared with methylene blue: superior to methylene blue

## CN(C)c1ccc2nc3ccc(=[N+](C)C)cc-3sc2c1 [methylene blue, reference compound]
FRDA lymphocyte
  cellular ATP levels: significantly increased cellular ATP levels

## COC1=C(OC)C(=O)C(C/C=C(\C)CC/C=C(\C)CC/C=C(\C)CC/C=C(\C)CC/C=C(\C)CC/C=C(\C)CC/C=C(\C)CC/C=C(\C)CC/C=C(\C)CCC=C(C)C)=C(C)C1=O [coenzyme Q10]
[1]
  calculated octanol-water partition coefficient: > 10^20

## CCCCCCCc1c(C)n(O)c(C)c(OC)c1=O [CPD-5, 3-heptyl-1-hydroxy-5-methoxy-2,6-dimethylpyridin-4(1H)-one]
[2]; 5 μM compound
  NADH oxidase (complex I, III, IV) activity (%): 44.5 ± 3.6%
[2]; 10 μM compound
  NADH oxidase (complex I, III, IV) activity (%): 33.5 ± 2.2%
[2]; l μM compound
  NADH oxidase (complex I, III, IV) activity (%): 74.5 ± 6.9%
CEM leukemia cells; 0.25 μM
  % of scavenging activity (ROS): 21.0 ± 5.5%
CEM leukemia cells; 2.5 μM
  % of scavenging activity (ROS): 26.4 ± 4.4%
CEM leukemia cells; 10 μM
  % of scavenging activity (ROS): 0 ± 10%
FRDA cell line; 0.1 μM
  viability at 0.1 µM: 12 ± 6%
FRDA cell line; 0.5 μM
  viability at 0.5 µM: 17 ± 7%
FRDA cell line; 2.5 μM
  viability at 2.5 µM: 14 ± 3%
Leukemia CEM lymphocytes; 1 μM
  Scavenging activity (%) (lipid peroxidation): 11 ± 1.8%
Leukemia CEM lymphocytes; 2.5 μM
  Scavenging activity (%) (lipid peroxidation): 16 ± 1.8%
Leukemia CEM lymphocytes; 5 μM
  Scavenging activity (%) (lipid peroxidation): 2.2 ± 2.3%
